{"source": "ChEMBL document CHEMBL3826977", "about": "“Discovery and Structural Characterization of G-quadruplex DNA in Human Acetyl-CoA Carboxylase Gene Promoters: Its Role in Transcriptional Regulation and as a Therapeutic Target for Human Disease” (J Med Chem, 2016)", "key": {"Homo sapiens [1]": {"organism": "Homo sapiens", "test": "Binding affinity to human ACC1 promoter2 G-quadraduplex DNA assessed as apparent isosbestic point at 5 uM by UV-vis absorption spectroscopy"}, "Homo sapiens [2]": {"organism": "Homo sapiens", "test": "Binding affinity to human ACC1 promoter1 G-quadraduplex DNA mutant assessed as inhibition of Taq-polymerase catalyzed primer extension preincubated for 1 hr followed by addition of Taq-polymerase measured after 30 mins by Taq-polymerase stop assay"}, "HeLa [3]": {"test_system": "HeLa", "test": "Binding affinity to human wild type ACC1 promoter2 G-quadraduplex DNA transfected in human HeLa cells assessed as suppression of ACC1 gene expression at 0.1 to 25 uM after 24 hrs by dual luciferase reporter assay relative to control", "assay_type": "cell-based"}, "Homo sapiens [4]": {"organism": "Homo sapiens", "test": "Binding affinity to human ACC1 promoter2 G-quadraduplex DNA assessed as hyperchromic shift at 5 uM by UV-vis absorption spectroscopy"}, "Homo sapiens [5]": {"organism": "Homo sapiens", "test": "Binding affinity to human ACC1 promoter2 G-quadraduplex DNA mutant assessed as inhibition of Taq-polymerase catalyzed primer extension preincubated for 1 hr followed by addition of Taq-polymerase measured after 30 mins in presence of KCl by Taq-polymerase stop assay"}, "Homo sapiens [6]": {"organism": "Homo sapiens", "test": "Binding affinity to human ACC1 promoter2 G-quadraduplex DNA assessed as bathochromic red shift at 5 uM by UV-vis absorption spectroscopy"}, "Homo sapiens [7]": {"organism": "Homo sapiens", "test": "Binding affinity to human ACC1 promoter1 G-quadraduplex DNA at 5 uM by UV-vis absorption spectroscopy"}, "Homo sapiens [8]": {"organism": "Homo sapiens", "test": "Binding affinity to human ACC1 promoter2 G-quadraduplex DNA assessed as decrease in fluorescence emission intensity by fluorescence emission spectroscopy"}, "HeLa [9]": {"test_system": "HeLa", "test": "Binding affinity to human wild type ACC1 promoter1 G-quadraduplex DNA transfected in human HeLa cells assessed as suppression of ACC1 gene expression after 24 hrs by dual luciferase reporter assay", "assay_type": "cell-based"}, "HeLa [10]": {"test_system": "HeLa", "test": "Binding affinity to human wild type ACC1 promoter2 G-quadraduplex DNA transfected in human HeLa cells assessed as suppression of ACC1 gene expression after 24 hrs by dual luciferase reporter assay", "assay_type": "cell-based"}, "Homo sapiens [11]": {"organism": "Homo sapiens", "test": "Binding affinity to human ACC1 promoter1 G-quadraduplex DNA assessed as decrease in fluorescence emission intensity by fluorescence emission spectroscopy"}, "Homo sapiens [12]": {"organism": "Homo sapiens", "test": "Binding affinity to human ACC1 promoter1 G-quadraduplex DNA assessed as inhibition of Taq-polymerase catalyzed primer extension preincubated for 1 hr followed by addition of Taq-polymerase measured after 30 mins by Taq-polymerase stop assay"}, "Homo sapiens [13]": {"organism": "Homo sapiens", "test": "Binding affinity to human ACC1 promoter2 G-quadraduplex DNA assessed as inhibition of Taq-polymerase catalyzed primer extension preincubated for 1 hr followed by addition of Taq-polymerase measured after 30 mins in presence of KCl by Taq-polymerase stop assay"}, "HeLa [14]": {"test_system": "HeLa", "test": "Binding affinity to human wild type ACC1 promoter1 G-quadraduplex DNA transfected in human HeLa cells assessed as suppression of ACC1 gene expression at 0.1 to 25 uM after 24 hrs by dual luciferase reporter assay relative to control", "assay_type": "cell-based"}, "[15]": {"test": "Binding affinity to human ACC1 promoter2 G-quadraduplex DNA"}, "[16]": {"test": "Binding affinity to human ACC1 promoter1 G-quadraduplex DNA"}, "HeLa [17]": {"test_system": "HeLa", "test": "Effect on GAPDH gene expression in human HeLa cells at 5 to 20 uM after 24 hrs by qRT-PCR method", "assay_type": "ADME, cell-based"}, "HeLa [18]": {"test_system": "HeLa", "test": "Binding affinity to human ACC1 promoter G-quadraduplex DNA transfected in human HeLa cells assessed as suppression of ACC1 gene expression after 24 hrs by qRT-PCR method", "assay_type": "cell-based"}}, "note": "Activity calls are given as the source filed them. No cut-off for these calls is given here."}
{"smiles": "C[n+]1ccc(-c2c3nc(c(-c4cc[n+](C)cc4)c4ccc([nH]4)c(-c4cc[n+](C)cc4)c4ccc([nH]4)c(-c4cc[n+](C)cc4)c4nc2C=C4)C=C3)cc1", "values": [{"measurement": "Activity", "setting": "Homo sapiens [1]", "result": 432, "unit": "nm"}, {"measurement": "inhibition", "setting": "Homo sapiens [2]", "result": "inactive"}, {"measurement": "inhibition", "setting": "HeLa [3]", "result": 84, "unit": "%"}, {"measurement": "Activity", "setting": "Homo sapiens [4]", "result": "Active"}, {"measurement": "inhibition", "setting": "Homo sapiens [5]", "result": "Active"}, {"measurement": "Activity", "setting": "Homo sapiens [6]", "result": 18, "unit": "nm"}, {"measurement": "Activity", "setting": "Homo sapiens [7]", "result": "Active"}, {"measurement": "Activity", "setting": "Homo sapiens [8]", "result": "Active"}, {"measurement": "inhibition", "setting": "HeLa [9]", "result": "Dose-dependent effect"}, {"measurement": "inhibition", "setting": "HeLa [10]", "result": "Dose-dependent effect"}, {"measurement": "Activity", "setting": "Homo sapiens [11]", "result": "Active"}, {"measurement": "inhibition", "setting": "Homo sapiens [12]", "result": "Dose-dependent effect"}, {"measurement": "inhibition", "setting": "Homo sapiens [13]", "result": "Dose-dependent effect"}, {"measurement": "inhibition", "setting": "HeLa [14]", "result": 67, "unit": "%"}]}
{"smiles": "C[n+]1ccc(-c2c3nc(c(-c4cc[n+](C)cc4)c4ccc([nH]4)c(-c4cc[n+](C)cc4)c4nc(c(-c5cc[n+](C)cc5)c5ccc2[nH]5)C=C4)C=C3)cc1", "values": [{"measurement": "Kd", "setting": "[15]", "result": 70, "unit": "nM"}, {"measurement": "Kd", "setting": "[16]", "result": 70, "unit": "nM"}]}
{"smiles": "c1cc2c(cc1-c1nc3cc(N4CCOCC4)ccc3[nH]1)c1cc(-c3nc4cc(N5CCOCC5)ccc4[nH]3)ccc1n2CCCCN1CCOCC1", "values": [{"measurement": "Activity", "setting": "HeLa [17]", "result": "Non-toxic"}, {"measurement": "inhibition", "setting": "HeLa [18]", "result": "Dose-dependent effect"}]}
